Results taken from article PMC3961306, “Comparison of the Cancer Gene Targeting and Biochemical Selectivities of All Targeted Kinase Inhibitors Approved for Clinical Use” (PLoS ONE, 2014).

Experiments:
Test in all cases: Kinase profiling in a biochemical assay panel (mobility shift assays and ELISA), %-inhibition at 1 μM; selectivity entropy
[1] = target: T1, panel of more than 300 wild-type and mutant kinases (313 kinase panel) (Homo sapiens, UniProt O14965); settings: 1 μM compound; for %-inhibition, AurA/TPX2: kinase AurA/TPX2; for %-inhibition, AurA: kinase AurA
T1 sequence (O14965 1-403): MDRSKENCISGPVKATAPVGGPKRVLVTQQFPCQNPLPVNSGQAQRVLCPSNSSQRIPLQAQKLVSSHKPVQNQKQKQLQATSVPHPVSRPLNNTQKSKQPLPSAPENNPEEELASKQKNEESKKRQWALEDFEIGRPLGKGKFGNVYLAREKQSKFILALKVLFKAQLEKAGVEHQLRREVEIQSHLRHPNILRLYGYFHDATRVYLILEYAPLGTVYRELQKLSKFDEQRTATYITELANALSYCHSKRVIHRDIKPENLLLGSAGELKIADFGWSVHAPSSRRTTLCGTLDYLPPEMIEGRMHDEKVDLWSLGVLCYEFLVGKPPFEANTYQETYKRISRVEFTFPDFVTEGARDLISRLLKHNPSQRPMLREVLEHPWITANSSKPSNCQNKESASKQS

[2] = target: panel of more than 300 wild-type and mutant kinases (313 kinase panel) (Homo sapiens, UniProt P10721, D816V)
[3] = target: panel of more than 300 wild-type and mutant kinases (313 kinase panel) (Homo sapiens, UniProt P11309); settings: kinase PIM1; 1 μM
[4] = target: panel of more than 300 wild-type and mutant kinases (313 kinase panel) (Homo sapiens, UniProt P16234, V561D)
[5] = target: T2, panel of more than 300 wild-type and mutant kinases (313 kinase panel) (Homo sapiens, UniProt Q13043)
T2 sequence (Q13043 1-487): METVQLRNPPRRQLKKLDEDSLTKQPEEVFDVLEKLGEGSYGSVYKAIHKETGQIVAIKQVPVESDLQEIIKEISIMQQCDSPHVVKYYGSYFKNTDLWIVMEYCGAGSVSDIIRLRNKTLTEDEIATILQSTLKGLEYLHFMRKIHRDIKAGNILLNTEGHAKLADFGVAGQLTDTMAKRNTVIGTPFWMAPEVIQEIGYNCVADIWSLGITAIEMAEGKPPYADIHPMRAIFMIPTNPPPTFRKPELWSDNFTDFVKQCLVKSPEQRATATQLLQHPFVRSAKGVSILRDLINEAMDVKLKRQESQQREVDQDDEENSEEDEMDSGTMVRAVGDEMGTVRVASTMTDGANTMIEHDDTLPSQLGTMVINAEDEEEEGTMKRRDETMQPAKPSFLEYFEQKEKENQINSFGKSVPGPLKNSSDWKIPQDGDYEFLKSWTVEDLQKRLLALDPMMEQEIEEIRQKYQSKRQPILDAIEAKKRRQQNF

[6] = target: T3, panel of more than 300 wild-type and mutant kinases (313 kinase panel) (Homo sapiens, UniProt Q13976)
T3 sequence (Q13976 1-671): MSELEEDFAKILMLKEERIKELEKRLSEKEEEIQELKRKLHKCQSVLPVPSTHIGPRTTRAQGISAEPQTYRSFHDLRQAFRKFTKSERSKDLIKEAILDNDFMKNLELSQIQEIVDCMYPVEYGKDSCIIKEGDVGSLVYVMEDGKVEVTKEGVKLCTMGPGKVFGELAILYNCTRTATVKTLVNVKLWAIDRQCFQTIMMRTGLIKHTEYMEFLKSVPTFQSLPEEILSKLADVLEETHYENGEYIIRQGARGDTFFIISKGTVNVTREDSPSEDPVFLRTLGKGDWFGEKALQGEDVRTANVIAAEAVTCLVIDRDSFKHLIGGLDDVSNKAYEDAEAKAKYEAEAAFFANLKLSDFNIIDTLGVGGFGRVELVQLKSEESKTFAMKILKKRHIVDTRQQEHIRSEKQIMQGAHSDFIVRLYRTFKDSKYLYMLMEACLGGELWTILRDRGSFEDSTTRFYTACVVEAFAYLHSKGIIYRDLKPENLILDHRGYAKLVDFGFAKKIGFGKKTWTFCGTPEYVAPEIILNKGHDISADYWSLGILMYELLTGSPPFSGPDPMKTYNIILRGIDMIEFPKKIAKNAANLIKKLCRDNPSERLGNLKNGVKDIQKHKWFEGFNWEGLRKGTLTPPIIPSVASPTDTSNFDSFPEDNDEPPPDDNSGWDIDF

[7] = target: panel of more than 300 wild-type and mutant kinases (313 kinase panel) (Homo sapiens, UniProt Q9H0K1); settings: kinase QIK; 1 μM
[8] = target: panel of more than 300 wild-type and mutant kinases (313 kinase panel) (Homo sapiens, UniProt Q9P1W9); settings: kinase PIM2; 1 μM
[9] = target: panel of more than 300 wild-type and mutant kinases (313 kinase panel) (Homo sapiens, UniProt Q9UKE5); settings: kinase TNIK; 1 μM
[10] = kinase KIT(D816V), compound at 1 μM

| Compound | %-inhibition, AurA/TPX2 [1] | %-inhibition, AurA [1] | %-inhibition of KIT(D816V) [2, 10] | %-inhibition of PIM1 [3] | %-inhibition of PDGFRα(V561D) ([4]; kinase PDGFRα(V561D), 1 μM) | %-inhibition of MST1 ([5]; kinase MST1, 1 μM) | %-inhibition of PGK ([6]; kinase PGK, 1 μM) | %-inhibition of QIK [7] | %-inhibition of PIM2 [8] | %-inhibition of TNIK [9] | %-inhibition of KIT(D816V) ([2]; 1 µM) | %-inhibition of PDGFRα(V561D) ([4]; 1 µM) | %-inhibition of MST1 ([5]; 1 µM) | %-inhibition of PGK ([6]; 1 µM) |
| --- | --- | --- | --- | --- | --- | --- | --- | --- | --- | --- | --- | --- | --- | --- |
| CNC(=O)c1cc(Oc2ccc(NC(=O)Nc3ccc(Cl)c(C(F)(F)F)c3)c(F)c2)ccn1 [regorafenib] | -4% | 7% | 40% | -9% | 101% | -5.39% | -7% | -5.63% | -9% | 42% | – | – | – | – |
| O=S(=O)(c1cccc2cnccc12)N1CCCNCC1 [fasudil] | -1.11% | -2% | 4.75% | 3% | 9% | 10% | 44% | 3.26% | -1.66% | 4% | – | – | – | – |
| Cc1cn(-c2cc(NC(=O)c3ccc(C)c(Nc4nccc(-c5cccnc5)n4)c3)cc(C(F)(F)F)c2)cn1 [nilotinib] | -9% | -5.43% | – | 8% | – | – | – | -36% | 7% | 11% | 43% | 100% | -21% | -13% |
| COc1cc2nccc(Oc3ccc(NC(=O)C4(C(=O)Nc5ccc(F)cc5)CC4)cc3)c2cc1OC [cabozantinib] | 29% | 54% | 23% | -10% | 99% | 6% | -3% | 0.408% | -12% | 16% | – | – | – | – |
